Laboratory results from ChEMBL document CHEMBL1201862, “PubChem BioAssay data set” (2004).
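Where inhibition never reached the appropriate level, the endpoint shown equals the highest concentration tested. Otherwise, values were interpolated linearly from a five-concentration, 48-hour dose response in 96-well plates. GI50 marks 50% less growth.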 Calls of active or inactive are those of the source. No stated cut-off is given here; in the data, active = GI50 up to about 1.1 µM and inactive = higher.

What was measured:
Assay in all cases: inhibition of tumour cell growth, NCI panel, 48 h
SF-268 = test system: SF-268
NCI-H23 = test system: NCI-H23
OVCAR-5 = test system: OVCAR-5
SNB-75 = test system: SNB-75
NCI-H522 = test system: NCI-H522
OVCAR-3 = test system: OVCAR-3
KM12 = test system: KM12
HL-60 = test system: HL-60
HOP-92 = test system: HOP-92
SK-MEL-5 = test system: SK-MEL-5
HOP-62 = test system: HOP-62
IGROV-1 = test system: IGROV-1
RPMI-8226 = test system: RPMI-8226
A498 = test system: A498
UACC-62 = test system: UACC-62
A549 = test system: A549
SW-620 = test system: SW-620
NCI-H226 = test system: NCI-H226

Row | SMILES | GI50 (SF-268) | GI50 (NCI-H23) | GI50 (OVCAR-5) | GI50 (SNB-75) | GI50 (NCI-H522) | GI50 (OVCAR-3) | GI50 (KM12) | GI50 (HL-60) | GI50 (HOP-92) | GI50 (SK-MEL-5) | GI50 (HOP-62) | GI50 (IGROV-1) | GI50 (RPMI-8226) | GI50 (A498) | GI50 (UACC-62) | GI50 (A549) | GI50 (SW-620) | GI50 (NCI-H226)
1 | CCN(CC)c1ccc(C(=O)c2ccccc2C(=O)O)c(O)c1 | > 100 µM (inactive) | > 100 µM (inactive) | > 100 µM (inactive) | > 100 µM (inactive) | 42.9 µM (inactive) | > 100 µM (inactive) | > 100 µM (inactive) | > 100 µM (inactive) | > 100 µM (inactive) | > 100 µM (inactive) | > 100 µM (inactive) | > 100 µM (inactive) | > 100 µM (inactive) | > 100 µM (inactive) | > 100 µM (inactive) | > 100 µM (inactive) | > 100 µM (inactive) | 
2 | CCCCOC(=O)CNC(=O)OCCCCC#CC#CCCCCOC(=O)NCC(=O)OCCCC | > 100 µM (inactive) | > 100 µM (inactive) | > 100 µM (inactive) | > 100 µM (inactive) | 76.7 µM (inactive) |  | > 100 µM (inactive) | > 100 µM (inactive) |  | > 100 µM (inactive) | > 100 µM (inactive) | > 100 µM (inactive) | > 100 µM (inactive) | > 100 µM (inactive) | > 100 µM (inactive) | > 100 µM (inactive) | > 100 µM (inactive) | > 100 µM (inactive)
3 | Nc1nc(Cl)cc(NCCCCCCNc2cc(Cl)nc(N)n2)n1 |  | 54.5 µM (inactive) | 16 µM (inactive) | > 100 µM (inactive) | 27.7 µM (inactive) | 34 µM (inactive) | > 100 µM (inactive) | 15.2 µM (inactive) | 25.4 µM (inactive) | 13.1 µM (inactive) | > 100 µM (inactive) | > 100 µM (inactive) | 45.3 µM (inactive) |  | 12 µM (inactive) | 60.7 µM (inactive) | > 100 µM (inactive) | 25.8 µM (inactive)
4 | COc1ccccc1/C=C1\CCC(CCN2CCOCC2)C1=O (stereo unspecified) | > 100 µM (inactive) | > 100 µM (inactive) | > 100 µM (inactive) | 49 µM (inactive) |  | > 100 µM (inactive) | > 100 µM (inactive) | 31.5 µM (inactive) | > 100 µM (inactive) | 68.1 µM (inactive) | > 100 µM (inactive) | > 100 µM (inactive) | 34 µM (inactive) | > 100 µM (inactive) | > 100 µM (inactive) | > 100 µM (inactive) | > 100 µM (inactive) | > 100 µM (inactive)
5 | CCCNCCCC(NC(C)=O)C(=O)NCc1ccccc1 (stereo unspecified) | > 100 µM (inactive) | > 100 µM (inactive) | > 100 µM (inactive) | 51.8 µM (inactive) | > 100 µM (inactive) | > 100 µM (inactive) | > 100 µM (inactive) |  | > 100 µM (inactive) | > 100 µM (inactive) | > 100 µM (inactive) | > 100 µM (inactive) | > 100 µM (inactive) | > 100 µM (inactive) | > 100 µM (inactive) | > 100 µM (inactive) | > 100 µM (inactive) | > 100 µM (inactive)
6 | CCOP(=O)(OCC)OC1C=CC2CCC1C2 (stereo unspecified) | > 100 µM (inactive) | > 100 µM (inactive) | > 100 µM (inactive) | > 100 µM (inactive) | > 100 µM (inactive) | > 100 µM (inactive) | > 100 µM (inactive) | > 100 µM (inactive) |  | > 100 µM (inactive) | > 100 µM (inactive) | > 100 µM (inactive) | 28.1 µM (inactive) | > 100 µM (inactive) | > 100 µM (inactive) | > 100 µM (inactive) |  | > 100 µM (inactive)
7 | C#Cc1cc(CN(CC(=O)OC(C)(C)C)CC(=O)OC(C)(C)C)nc(CN(CC(=O)OC(C)(C)C)CC(=O)OC(C)(C)C)c1 | 4.8 µM (inactive) | 4.74 µM (inactive) | 21.6 µM (inactive) | 11.6 µM (inactive) | 2.01 µM (inactive) | 3.04 µM (inactive) | 3.72 µM (inactive) | 2.98 µM (inactive) |  | 3.59 µM (inactive) | 3.92 µM (inactive) | 7.66 µM (inactive) | 2.75 µM (inactive) | 17.8 µM (inactive) | 4.26 µM (inactive) | 7.85 µM (inactive) | 4.81 µM (inactive) | 0.498 µM (active)
8 | Cc1cc(NS(=O)(=O)c2ccc(NC(=O)c3cccc4c(Nc5ccc(S(=O)(=O)Nc6cc(C)on6)cc5)c5ccccc5nc34)cc2)no1 | 34.7 µM (inactive) | 44.5 µM (inactive) | > 100 µM (inactive) | 22.3 µM (inactive) | 20 µM (inactive) | 87.3 µM (inactive) | > 100 µM (inactive) | 23.7 µM (inactive) | 17.5 µM (inactive) | 69.2 µM (inactive) | 47.8 µM (inactive) | 27.7 µM (inactive) | 64.4 µM (inactive) | 68.9 µM (inactive) | 17.5 µM (inactive) | > 100 µM (inactive) | > 100 µM (inactive) | 
9 | Cc1cc(C)nc(NS(=O)(=O)c2ccc(Nc3c4ccccc4nc4c(C(=O)Nc5ccc(S(=O)(=O)N=C(N)N)cc5)ccc(Cl)c34)cc2)n1 | 27.9 µM (inactive) | 19.7 µM (inactive) | 41.2 µM (inactive) | 35.7 µM (inactive) | 15.8 µM (inactive) | 17.5 µM (inactive) | 42.7 µM (inactive) | 24.1 µM (inactive) |  | 98.6 µM (inactive) | 23.2 µM (inactive) |  | 28.2 µM (inactive) | 34.6 µM (inactive) | 19.3 µM (inactive) | > 100 µM (inactive) |  | 21.9 µM (inactive)
10 | CC(C)CCn1nc(N)c2nc3ccccc3nc21 | > 100 µM (inactive) | > 100 µM (inactive) | > 100 µM (inactive) | > 100 µM (inactive) | > 100 µM (inactive) | > 100 µM (inactive) | > 100 µM (inactive) | 41.6 µM (inactive) | > 100 µM (inactive) |  | > 100 µM (inactive) | > 100 µM (inactive) | > 100 µM (inactive) | > 100 µM (inactive) | > 100 µM (inactive) | > 100 µM (inactive) | 67.6 µM (inactive) | 61.8 µM (inactive)
11 | Cc1cc2c(c3c1c1ccccc1n3C)C(=O)c1ccccc1C2=O | > 100 µM (inactive) | 48.5 µM (inactive) | > 100 µM (inactive) | > 100 µM (inactive) | 75.3 µM (inactive) | > 100 µM (inactive) | > 100 µM (inactive) | 39.3 µM (inactive) | 16.9 µM (inactive) | > 100 µM (inactive) | > 100 µM (inactive) | 45.7 µM (inactive) | > 100 µM (inactive) |  | > 100 µM (inactive) | > 100 µM (inactive) | > 100 µM (inactive) | 
12 | CC1=NN(C(=O)c2ccc(Cl)cc2)C(=O)/C1=C/c1ccco1 | > 100 µM (inactive) | > 100 µM (inactive) | > 100 µM (inactive) |  | > 100 µM (inactive) | > 100 µM (inactive) | > 100 µM (inactive) | > 100 µM (inactive) | > 100 µM (inactive) | > 100 µM (inactive) | > 100 µM (inactive) | > 100 µM (inactive) | > 100 µM (inactive) | > 100 µM (inactive) | > 100 µM (inactive) | > 100 µM (inactive) | > 100 µM (inactive) | 
13 | Cc1ccc(NC(=O)C2C(=O)C(=O)N(c3ccc(C)cc3)C2=O)cc1 (stereo unspecified) | > 100 µM (inactive) | > 100 µM (inactive) | > 100 µM (inactive) |  | > 100 µM (inactive) |  | > 100 µM (inactive) | > 100 µM (inactive) | > 100 µM (inactive) | > 100 µM (inactive) | 93.3 µM (inactive) | > 100 µM (inactive) |  | > 100 µM (inactive) | > 100 µM (inactive) | > 100 µM (inactive) | > 100 µM (inactive) | 
14 | Cc1ccccc1CN1CC=c2ccccc2=N1 | > 100 µM (inactive) | > 100 µM (inactive) | > 100 µM (inactive) | 50.9 µM (inactive) |  | > 100 µM (inactive) | > 100 µM (inactive) |  | > 100 µM (inactive) | 97.9 µM (inactive) | > 100 µM (inactive) | > 100 µM (inactive) | > 100 µM (inactive) | > 100 µM (inactive) | > 100 µM (inactive) | 93.5 µM (inactive) | > 100 µM (inactive) | > 100 µM (inactive)
15 | COC(=O)C(CCC1(C)OCCO1)C(C)=O (stereo unspecified) | > 100 µM (inactive) | > 100 µM (inactive) | > 100 µM (inactive) | > 100 µM (inactive) | > 100 µM (inactive) | > 100 µM (inactive) | > 100 µM (inactive) | > 100 µM (inactive) |  | > 100 µM (inactive) | > 100 µM (inactive) | > 100 µM (inactive) |  | > 100 µM (inactive) |  | > 100 µM (inactive) | > 100 µM (inactive) | > 100 µM (inactive)
16 | CCCCCCCCCCCCCS(=O)(=O)O | > 100 µM (inactive) | > 100 µM (inactive) | > 100 µM (inactive) | > 100 µM (inactive) | > 100 µM (inactive) | > 100 µM (inactive) | > 100 µM (inactive) | > 100 µM (inactive) | > 100 µM (inactive) | > 100 µM (inactive) | > 100 µM (inactive) | > 100 µM (inactive) |  | > 100 µM (inactive) | > 100 µM (inactive) | > 100 µM (inactive) | > 100 µM (inactive) | > 100 µM (inactive)
17 | CN1CCS(=O)(=O)NC(Cc2ccccc2)C(=O)N2CCCC2C1=O (stereo unspecified) | > 100 µM (inactive) | > 100 µM (inactive) | > 100 µM (inactive) | > 100 µM (inactive) | > 100 µM (inactive) | > 100 µM (inactive) | > 100 µM (inactive) | > 100 µM (inactive) |  | > 100 µM (inactive) | > 100 µM (inactive) | > 100 µM (inactive) | > 100 µM (inactive) | > 100 µM (inactive) | > 100 µM (inactive) | > 100 µM (inactive) | > 100 µM (inactive) | > 100 µM (inactive)
